Laboratory results from BigSolDB 2.1.

CC[n+]1ccccc1.F[P-](F)(F)(F)(F)F
solubility (mole fraction)
Details | in ethanol | in water
278.15 K | 8.4e-05 | 0.000474
283.15 K | 0.000121 | 0.000581
288.15 K | 0.000171 | 0.000711
293.15 K | 0.000224 | 0.000857
298.15 K | 0.000324 | 0.00105
303.15 K | 0.000561 | 0.0013
308.15 K | 0.00061 | 0.00159
313.15 K | 0.000718 | 0.00186
318.15 K | 0.000976 | 0.00216
323.15 K | 0.0015 | 0.0026
328.15 K | 0.00189 | 0.00325
333.15 K | 0.00252 | 0.00387
338.15 K | 0.00308 | 0.00454
343.15 K | 0.00389 | 0.00535
